# Assay results taken from patent publication US20260242419A1, “A CYCLIC PEPTIDE FOR TRAPPING INTERLEUKIN-1 BETA” (Merck Sharp & Dohme LLC, priority 2023, published 2026).
# Starred links: 1 amine or outer side, 2 acyl side, 3 side chain; linkers in the order of their positions; H or OH if unused. Non-standard residues stand in square brackets, D forms with d. Residues, ends and D or L forms follow the SMILES beside them. X39 = CNc1ncc(-c2ccc(C[C@H]3CCN([*:1])[C@H]3C(=O)[*:2])cc2)cn1; X1 = COc1ncc(-c2ccc(C[C@H]3CCN([*:1])[C@H]3C(=O)[*:2])cc2)cn1; X22 = Nc1ncc(-c2ccc(C[C@H]3CCN([*:1])[C@H]3C(=O)[*:2])cc2)cn1; X49 = Nc1cnc(-c2ccc(C[C@H]3CCN([*:1])[C@H]3C(=O)[*:2])cc2)cn1; X16 = Cn1cnc(-c2ccc(C[C@H]3CCN([*:1])[C@H]3C(=O)[*:2])cc2)c1; Trp(βS-Me,4-F) = C[C@@H](c1c[nH]c2cccc(F)c12)[C@H](N)C(=O)O; X15 = O=C([C@H]1[C@@H](Cc2ccc(-c3ccnnc3)cc2)CCN1[*:1])[*:2]; X33 = O=C([C@H]1[C@@H](Cc2ccc(-c3ccncc3)cc2)CCN1[*:1])[*:2]; X42 = O=C([C@H]1[C@@H](Cc2ccc(-c3cncnc3)cc2)CCN1[*:1])[*:2]; X48 = O=C([C@H]1[C@@H](Cc2ccc(-c3cccnc3)cc2)CCN1[*:1])[*:2]; Bip(4'-COOH) = N[C@@H](Cc1ccc(-c2ccc(C(=O)O)cc2)cc1)C(=O)O; X18 = Cn1ccnc1-c1ccc(C[C@H]2CCN([*:1])[C@H]2C(=O)[*:2])cc1; X43 = Cc1nocc1-c1ccc(C[C@H]2CCN([*:1])[C@H]2C(=O)[*:2])cc1; X8 = O=C([C@H]1[C@@H](Cc2ccc(-c3ccccn3)cc2)CCN1[*:1])[*:2]; dPro(4R-Bzl(4-F)) = O=C(O)[C@H]1C[C@@H](Cc2ccc(F)cc2)CN1; Ala(pyrimidin-5-yl) = N[C@@H](Cc1cncnc1)C(=O)O; Phe(4-COOH) = N[C@@H](Cc1ccc(C(=O)O)cc1)C(=O)O; Pro(cis-4-F) = O=C(O)[C@@H]1C[C@H](F)CN1; 4Pal = N[C@@H](Cc1ccncc1)C(=O)O; Cit = NC(=O)NCCC[C@H](N)C(=O)O; Dab = NCC[C@H](N)C(=O)O; Aib = CC(C)(N)C(=O)O
# Biological target: T1, IL-1β (Homo sapiens, UniProt P01584)
# T1 construct: purchased BioLegend 579404
# T1 sequence (P01584 117-269): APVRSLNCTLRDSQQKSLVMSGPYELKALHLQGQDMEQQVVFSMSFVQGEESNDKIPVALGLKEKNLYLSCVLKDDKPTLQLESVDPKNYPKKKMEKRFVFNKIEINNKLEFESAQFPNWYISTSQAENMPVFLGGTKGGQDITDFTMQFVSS
# Experiment: IL-6 assay in MRC5 cells: inhibition of IL-1β induced IL-6 secretion (AlphaLISA)
# Assay type: cell-based
# Conditions: inhibition of IL-1β induced IL-6 secretion in MRC5 cells; read-out: MRC5 IC50
# Outline: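 Compound was pre-incubated 1 h at ambient temperature with recombinant human IL-1β at 2λ EC80 before adding human lung fibroblast MRC5 cells (3000/well) in EMEM with 0.025% BSA. After overnight culture at 37 °C, 5% CO2, secreted IL-6 in conditioned medium was measured by AlphaLISA; IC50 from 4-parameter logistic fits.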
row,IC50,SMILES
1,0.021 nM,"C[C@@H](c1c[nH]c2cccc(F)c12)[C@@H]1NC(=O)[C@@H]2C[C@H](F)CN2C(=O)CNC(=O)[C@H](Cc2ccc(C(=O)O)cc2)NC(=O)[C@H](Cc2ccncc2)NC(=O)[C@H](Cc2ccc(-c3ccc(C(=O)O)cc3)cc2)NC(=O)[C@H]2C[C@@H](Cc3ccc(F)cc3)CN2C(=O)CNC(=O)[C@H](CCN)NC(=O)[C@H](CCC(N)=O)NC(=O)[C@H](CCCNC(N)=O)NC(=O)C(C)(C)NC(=O)[C@H](Cc2c[nH]c3ccccc23)NC(=O)[C@H](CCC(=O)O)NC(=O)C(C)(C)NC1=O [Example 52] (cyclo([Bip(4'-COOH)][4Pal][Phe(4-COOH)]G[Pro(cis-4-F)][Trp(βS-Me,4-F)][Aib]EW[Aib][Cit]Q[Dab]G[dPro(4R-Bzl(4-F))]))"
2,0.018 nM,"C[C@@H](c1c[nH]c2cccc(F)c12)[C@@H]1NC(=O)[C@@H]2C[C@H](F)CN2C(=O)CNC(=O)[C@H](Cc2ccc(C(=O)O)cc2)NC(=O)[C@H](Cc2ccncc2)NC(=O)[C@H](Cc2ccc(-c3ccc(C(=O)O)cc3)cc2)NC(=O)[C@H]2[C@@H](Cc3ccc(-c4cncnc4)cc3)CCN2C(=O)CNC(=O)[C@H](CCN)NC(=O)[C@H](CCC(N)=O)NC(=O)[C@H](Cc2cncnc2)NC(=O)C(C)(C)NC(=O)[C@H](Cc2c[nH]c3ccccc23)NC(=O)[C@H](CCC(=O)O)NC(=O)C(C)(C)NC1=O [Example 53] (cyclo([Bip(4'-COOH)][4Pal][Phe(4-COOH)]G[Pro(cis-4-F)][Trp(βS-Me,4-F)][Aib]EW[Aib][Ala(pyrimidin-5-yl)]Q[Dab]G[X42]))"
3,0.021 nM,"CNc1ncc(-c2ccc(C[C@H]3CCN4C(=O)CNC(=O)[C@H](CCN)NC(=O)[C@H](CCC(N)=O)NC(=O)[C@H](Cc5cncnc5)NC(=O)C(C)(C)NC(=O)[C@H](Cc5c[nH]c6ccccc56)NC(=O)[C@H](CCC(=O)O)NC(=O)C(C)(C)NC(=O)[C@H]([C@@H](C)c5c[nH]c6cccc(F)c56)NC(=O)[C@@H]5C[C@H](F)CN5C(=O)CNC(=O)[C@H](Cc5ccc(C(=O)O)cc5)NC(=O)[C@H](Cc5ccncc5)NC(=O)[C@H](Cc5ccc(-c6ccc(C(=O)O)cc6)cc5)NC(=O)[C@@H]34)cc2)cn1 [Example 54] (cyclo([Bip(4'-COOH)][4Pal][Phe(4-COOH)]G[Pro(cis-4-F)][Trp(βS-Me,4-F)][Aib]EW[Aib][Ala(pyrimidin-5-yl)]Q[Dab]G[X39]))"
4,0.024 nM,"C[C@@H](c1c[nH]c2cccc(F)c12)[C@@H]1NC(=O)[C@@H]2C[C@H](F)CN2C(=O)CNC(=O)[C@H](Cc2ccc(C(=O)O)cc2)NC(=O)[C@H](Cc2ccncc2)NC(=O)[C@H](Cc2ccc(-c3ccc(C(=O)O)cc3)cc2)NC(=O)[C@H]2[C@@H](Cc3ccc(-c4ccncc4)cc3)CCN2C(=O)CNC(=O)[C@H](CCN)NC(=O)[C@H](CCC(N)=O)NC(=O)[C@H](Cc2cncnc2)NC(=O)C(C)(C)NC(=O)[C@H](Cc2c[nH]c3ccccc23)NC(=O)[C@H](CCC(=O)O)NC(=O)C(C)(C)NC1=O [Example 55] (cyclo([Bip(4'-COOH)][4Pal][Phe(4-COOH)]G[Pro(cis-4-F)][Trp(βS-Me,4-F)][Aib]EW[Aib][Ala(pyrimidin-5-yl)]Q[Dab]G[X33]))"
5,0.022 nM,"C[C@@H](c1c[nH]c2cccc(F)c12)[C@@H]1NC(=O)[C@@H]2C[C@H](F)CN2C(=O)CNC(=O)[C@H](Cc2ccc(C(=O)O)cc2)NC(=O)[C@H](Cc2ccncc2)NC(=O)[C@H](Cc2ccc(-c3ccc(C(=O)O)cc3)cc2)NC(=O)[C@H]2[C@@H](Cc3ccc(-c4cccnc4)cc3)CCN2C(=O)CNC(=O)[C@H](CCN)NC(=O)[C@H](CCC(N)=O)NC(=O)[C@H](Cc2cncnc2)NC(=O)C(C)(C)NC(=O)[C@H](Cc2c[nH]c3ccccc23)NC(=O)[C@H](CCC(=O)O)NC(=O)C(C)(C)NC1=O [Example 56] (cyclo([Bip(4'-COOH)][4Pal][Phe(4-COOH)]G[Pro(cis-4-F)][Trp(βS-Me,4-F)][Aib]EW[Aib][Ala(pyrimidin-5-yl)]Q[Dab]G[X48]))"
6,0.019 nM,"C[C@@H](c1c[nH]c2cccc(F)c12)[C@@H]1NC(=O)[C@@H]2C[C@H](F)CN2C(=O)CNC(=O)[C@H](Cc2ccc(C(=O)O)cc2)NC(=O)[C@H](Cc2ccncc2)NC(=O)[C@H](Cc2ccc(-c3ccc(C(=O)O)cc3)cc2)NC(=O)[C@H]2[C@@H](Cc3ccc(-c4cnc(N)cn4)cc3)CCN2C(=O)CNC(=O)[C@H](CCN)NC(=O)[C@H](CCC(N)=O)NC(=O)[C@H](Cc2cncnc2)NC(=O)C(C)(C)NC(=O)[C@H](Cc2c[nH]c3ccccc23)NC(=O)[C@H](CCC(=O)O)NC(=O)C(C)(C)NC1=O [Example 57] (cyclo([Bip(4'-COOH)][4Pal][Phe(4-COOH)]G[Pro(cis-4-F)][Trp(βS-Me,4-F)][Aib]EW[Aib][Ala(pyrimidin-5-yl)]Q[Dab]G[X49]))"
7,0.037 nM,"C[C@@H](c1c[nH]c2cccc(F)c12)[C@@H]1NC(=O)[C@@H]2C[C@H](F)CN2C(=O)CNC(=O)[C@H](Cc2ccc(C(=O)O)cc2)NC(=O)[C@H](Cc2ccncc2)NC(=O)[C@H](Cc2ccc(-c3ccc(C(=O)O)cc3)cc2)NC(=O)[C@H]2[C@@H](Cc3ccc(-c4ccnnc4)cc3)CCN2C(=O)CNC(=O)[C@H](CCN)NC(=O)[C@H](CCC(N)=O)NC(=O)[C@H](Cc2cncnc2)NC(=O)C(C)(C)NC(=O)[C@H](Cc2c[nH]c3ccccc23)NC(=O)[C@H](CCC(=O)O)NC(=O)C(C)(C)NC1=O [Example 58] (cyclo([Bip(4'-COOH)][4Pal][Phe(4-COOH)]G[Pro(cis-4-F)][Trp(βS-Me,4-F)][Aib]EW[Aib][Ala(pyrimidin-5-yl)]Q[Dab]G[X15]))"
8,0.018 nM,"C[C@@H](c1c[nH]c2cccc(F)c12)[C@@H]1NC(=O)[C@@H]2C[C@H](F)CN2C(=O)CNC(=O)[C@H](Cc2ccc(C(=O)O)cc2)NC(=O)[C@H](Cc2ccncc2)NC(=O)[C@H](Cc2ccc(-c3ccc(C(=O)O)cc3)cc2)NC(=O)[C@H]2[C@@H](Cc3ccc(-c4cnc(N)nc4)cc3)CCN2C(=O)CNC(=O)[C@H](CCN)NC(=O)[C@H](CCC(N)=O)NC(=O)[C@H](Cc2cncnc2)NC(=O)C(C)(C)NC(=O)[C@H](Cc2c[nH]c3ccccc23)NC(=O)[C@H](CCC(=O)O)NC(=O)C(C)(C)NC1=O [Example 59] (cyclo([Bip(4'-COOH)][4Pal][Phe(4-COOH)]G[Pro(cis-4-F)][Trp(βS-Me,4-F)][Aib]EW[Aib][Ala(pyrimidin-5-yl)]Q[Dab]G[X22]))"
9,0.018 nM,"COc1ncc(-c2ccc(C[C@H]3CCN4C(=O)CNC(=O)[C@H](CCN)NC(=O)[C@H](CCC(N)=O)NC(=O)[C@H](Cc5cncnc5)NC(=O)C(C)(C)NC(=O)[C@H](Cc5c[nH]c6ccccc56)NC(=O)[C@H](CCC(=O)O)NC(=O)C(C)(C)NC(=O)[C@H]([C@@H](C)c5c[nH]c6cccc(F)c56)NC(=O)[C@@H]5C[C@H](F)CN5C(=O)CNC(=O)[C@H](Cc5ccc(C(=O)O)cc5)NC(=O)[C@H](Cc5ccncc5)NC(=O)[C@H](Cc5ccc(-c6ccc(C(=O)O)cc6)cc5)NC(=O)[C@@H]34)cc2)cn1 [Example 60] (cyclo([Bip(4'-COOH)][4Pal][Phe(4-COOH)]G[Pro(cis-4-F)][Trp(βS-Me,4-F)][Aib]EW[Aib][Ala(pyrimidin-5-yl)]Q[Dab]G[X1]))"
10,0.022 nM,"C[C@@H](c1c[nH]c2cccc(F)c12)[C@@H]1NC(=O)[C@@H]2C[C@H](F)CN2C(=O)CNC(=O)[C@H](Cc2ccc(C(=O)O)cc2)NC(=O)[C@H](Cc2ccncc2)NC(=O)[C@H](Cc2ccc(-c3ccc(C(=O)O)cc3)cc2)NC(=O)[C@H]2[C@@H](Cc3ccc(-c4ccccn4)cc3)CCN2C(=O)CNC(=O)[C@H](CCN)NC(=O)[C@H](CCC(N)=O)NC(=O)[C@H](Cc2cncnc2)NC(=O)C(C)(C)NC(=O)[C@H](Cc2c[nH]c3ccccc23)NC(=O)[C@H](CCC(=O)O)NC(=O)C(C)(C)NC1=O [Example 61] (cyclo([Bip(4'-COOH)][4Pal][Phe(4-COOH)]G[Pro(cis-4-F)][Trp(βS-Me,4-F)][Aib]EW[Aib][Ala(pyrimidin-5-yl)]Q[Dab]G[X8]))"
11,0.021 nM,"Cc1nocc1-c1ccc(C[C@H]2CCN3C(=O)CNC(=O)[C@H](CCN)NC(=O)[C@H](CCC(N)=O)NC(=O)[C@H](Cc4cncnc4)NC(=O)C(C)(C)NC(=O)[C@H](Cc4c[nH]c5ccccc45)NC(=O)[C@H](CCC(=O)O)NC(=O)C(C)(C)NC(=O)[C@H]([C@@H](C)c4c[nH]c5cccc(F)c45)NC(=O)[C@@H]4C[C@H](F)CN4C(=O)CNC(=O)[C@H](Cc4ccc(C(=O)O)cc4)NC(=O)[C@H](Cc4ccncc4)NC(=O)[C@H](Cc4ccc(-c5ccc(C(=O)O)cc5)cc4)NC(=O)[C@@H]23)cc1 [Example 62] (cyclo([Bip(4'-COOH)][4Pal][Phe(4-COOH)]G[Pro(cis-4-F)][Trp(βS-Me,4-F)][Aib]EW[Aib][Ala(pyrimidin-5-yl)]Q[Dab]G[X43]))"
12,0.018 nM,"C[C@@H](c1c[nH]c2cccc(F)c12)[C@@H]1NC(=O)[C@@H]2C[C@H](F)CN2C(=O)CNC(=O)[C@H](Cc2ccc(C(=O)O)cc2)NC(=O)[C@H](Cc2ccncc2)NC(=O)[C@H](Cc2ccc(-c3ccc(C(=O)O)cc3)cc2)NC(=O)[C@H]2[C@@H](Cc3ccc(-c4nccn4C)cc3)CCN2C(=O)CNC(=O)[C@H](CCN)NC(=O)[C@H](CCC(N)=O)NC(=O)[C@H](Cc2cncnc2)NC(=O)C(C)(C)NC(=O)[C@H](Cc2c[nH]c3ccccc23)NC(=O)[C@H](CCC(=O)O)NC(=O)C(C)(C)NC1=O [Example 63] (cyclo([Bip(4'-COOH)][4Pal][Phe(4-COOH)]G[Pro(cis-4-F)][Trp(βS-Me,4-F)][Aib]EW[Aib][Ala(pyrimidin-5-yl)]Q[Dab]G[X18]))"
13,0.014 nM,"C[C@@H](c1c[nH]c2cccc(F)c12)[C@@H]1NC(=O)[C@@H]2C[C@H](F)CN2C(=O)CNC(=O)[C@H](Cc2ccc(C(=O)O)cc2)NC(=O)[C@H](Cc2ccncc2)NC(=O)[C@H](Cc2ccc(-c3ccc(C(=O)O)cc3)cc2)NC(=O)[C@H]2[C@@H](Cc3ccc(-c4cn(C)cn4)cc3)CCN2C(=O)CNC(=O)[C@H](CCN)NC(=O)[C@H](CCC(N)=O)NC(=O)[C@H](Cc2cncnc2)NC(=O)C(C)(C)NC(=O)[C@H](Cc2c[nH]c3ccccc23)NC(=O)[C@H](CCC(=O)O)NC(=O)C(C)(C)NC1=O [Example 64] (cyclo([Bip(4'-COOH)][4Pal][Phe(4-COOH)]G[Pro(cis-4-F)][Trp(βS-Me,4-F)][Aib]EW[Aib][Ala(pyrimidin-5-yl)]Q[Dab]G[X16]))"
